Source: patent US6410568B1, “Porphyrins and their use as photosensitizer” (Astrid Schastak, priority 1998, dated 2002)

Legend:
Assay in all cases: Photodynamic effect in vitro, MTT test after irradiation
choroid melanoma cells = format: cell-based; conditions: THPTPS 0.4, 0.8, 1.6 mg/ml for 12 hours, Ti:Sa laser 771 nm, 15 J/cm^2
Protocol: (§1) To examine the photodynamic effect in vitro, the above-mentioned cell lines were cultivated in a cell count of 2×10^5 C/ml in DMEM+10% FKS and incubated with the photosensitizer THPTPS in a concentration of 0.2, 0.4, 0.8 mg/ml (Wittier) or 0.4, 0.8, 1.6 mg/ml for 12 hours. Subsequently, they were irradiated with the light of a Ti:Sa leaser with a wavelength of 771 nm and a dose of 15 J/cm^2. […] Approximately 88% of the choroid melanoma cells were able to be killed by the irradiation.

[1] = tested on: bile duct adenocarcinoma cell line (Charies), undifferentiated to a high degree; format: cell-based; conditions: THPTPS 0.4, 0.8, 1.6 mg/ml for 12 hours, Ti:Sa laser 771 nm, 15 J/cm^2
Protocol: as §1

[2] = tested on: highly-differentiated gallbladder carcinoma cell line (Wittier); format: cell-based, human; conditions: THPTPS 0.2, 0.4, 0.8 mg/ml for 12 hours, Ti:Sa laser 771 nm, 15 J/cm^2
Protocol: as §1

In the case of “5,10,15,20-tetrakis-(1-alkyl-pyridyl)-21H, 23H-7,8,17,18-tetrahydroporphyrin-tetra-p-toluene sulphonate [THPTPS]”, the “cells killed by the irradiation (MTT test)” value (choroid melanoma cells) is reported as “approx. 88%”, the “cells dead (MTT test)” value [1] is reported as “approx. 84%” and the “cells dead (MTT test)” value [2] is reported as “approx. 88%”.
